Source: publication PMC12217528, “Structural basis of topoisomerase targeting by delafloxacin” (Nature Communications, 2025)

Assays:
Format in all cases: biochemical
[1] = target: T1, DNA gyrase (GyrA subunit) (Streptococcus pneumoniae, UniProt P0A4M0+Q8DPM2); test: supercoiled pBR322 DNA cleavage assay (cleavage complex stabilisation)
T1 construct: full-length GyrA reconstituted with GyrB; with GyrB, with DNA

[2] = target: T2, topoisomerase IV (ParC subunit, ParE30-ParC55 fusion) (Streptococcus pneumoniae, UniProt P72525+Q59961); test: X-ray co-crystal structures at […] and […] Å; DNA cleavage assay with purified enzyme; design: ParE30-ParC55 fusion protein (ParE TOPRIM domain + ParC breakage-reunion domain), C-terminal His6; with ParE (ParE30 TOPRIM domain), with 18-mer V-site or E-site gate DNA
Target sequence in this assay (Q59961 404-647): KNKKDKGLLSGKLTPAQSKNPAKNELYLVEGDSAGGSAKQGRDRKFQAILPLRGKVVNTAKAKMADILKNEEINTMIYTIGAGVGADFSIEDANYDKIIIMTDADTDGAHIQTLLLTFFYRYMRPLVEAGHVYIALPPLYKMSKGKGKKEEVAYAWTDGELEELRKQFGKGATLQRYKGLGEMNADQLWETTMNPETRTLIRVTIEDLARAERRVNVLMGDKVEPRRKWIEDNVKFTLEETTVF
Target sequence in this assay (P72525 1-490): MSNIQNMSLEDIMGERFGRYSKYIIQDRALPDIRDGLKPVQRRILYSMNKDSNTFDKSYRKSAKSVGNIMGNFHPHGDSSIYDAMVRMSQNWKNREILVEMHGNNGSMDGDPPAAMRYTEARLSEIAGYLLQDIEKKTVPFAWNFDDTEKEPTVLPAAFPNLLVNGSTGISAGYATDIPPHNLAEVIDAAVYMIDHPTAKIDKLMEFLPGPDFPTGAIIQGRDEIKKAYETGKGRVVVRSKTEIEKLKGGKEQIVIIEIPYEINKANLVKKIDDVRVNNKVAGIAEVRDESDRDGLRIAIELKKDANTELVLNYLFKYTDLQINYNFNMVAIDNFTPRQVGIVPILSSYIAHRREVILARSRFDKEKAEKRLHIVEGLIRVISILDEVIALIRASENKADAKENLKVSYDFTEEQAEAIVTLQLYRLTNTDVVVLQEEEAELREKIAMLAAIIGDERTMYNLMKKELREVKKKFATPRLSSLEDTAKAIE

[3] = target: T2, topoisomerase IV (ParC subunit, ParE30-ParC55 fusion); test: supercoiled pBR322 DNA cleavage assay (cleavage complex stabilisation); design: ParE30-ParC55 fusion protein; with ParE (ParE30 TOPRIM domain), with DNA
Target sequence in this assay (P72525 1-490): as above
Target sequence in this assay (Q59961 404-647): as the sequence (Q59961 404-647) above

T1 sequence (Q8DPM2 whole entry): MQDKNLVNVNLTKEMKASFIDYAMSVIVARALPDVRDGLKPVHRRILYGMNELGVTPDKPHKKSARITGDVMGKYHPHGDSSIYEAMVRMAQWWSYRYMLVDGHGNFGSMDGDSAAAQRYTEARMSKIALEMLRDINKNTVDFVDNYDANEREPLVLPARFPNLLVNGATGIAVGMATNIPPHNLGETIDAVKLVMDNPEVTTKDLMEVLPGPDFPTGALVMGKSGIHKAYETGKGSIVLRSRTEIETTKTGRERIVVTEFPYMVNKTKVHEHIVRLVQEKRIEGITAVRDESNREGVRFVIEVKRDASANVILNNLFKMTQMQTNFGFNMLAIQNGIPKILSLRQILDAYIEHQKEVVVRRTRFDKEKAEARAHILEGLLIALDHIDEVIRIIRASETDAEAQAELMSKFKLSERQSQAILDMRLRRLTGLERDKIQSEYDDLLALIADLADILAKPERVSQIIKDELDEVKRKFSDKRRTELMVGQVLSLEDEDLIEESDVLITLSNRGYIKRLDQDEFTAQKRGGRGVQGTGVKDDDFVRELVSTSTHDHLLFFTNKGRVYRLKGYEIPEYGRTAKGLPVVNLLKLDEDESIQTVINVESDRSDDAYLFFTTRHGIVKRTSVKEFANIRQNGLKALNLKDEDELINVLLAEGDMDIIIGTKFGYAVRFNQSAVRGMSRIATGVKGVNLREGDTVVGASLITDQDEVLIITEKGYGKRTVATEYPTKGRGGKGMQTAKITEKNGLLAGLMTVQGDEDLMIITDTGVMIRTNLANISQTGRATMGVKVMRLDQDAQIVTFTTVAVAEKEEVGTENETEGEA
T1 sequence (P0A4M0 whole entry): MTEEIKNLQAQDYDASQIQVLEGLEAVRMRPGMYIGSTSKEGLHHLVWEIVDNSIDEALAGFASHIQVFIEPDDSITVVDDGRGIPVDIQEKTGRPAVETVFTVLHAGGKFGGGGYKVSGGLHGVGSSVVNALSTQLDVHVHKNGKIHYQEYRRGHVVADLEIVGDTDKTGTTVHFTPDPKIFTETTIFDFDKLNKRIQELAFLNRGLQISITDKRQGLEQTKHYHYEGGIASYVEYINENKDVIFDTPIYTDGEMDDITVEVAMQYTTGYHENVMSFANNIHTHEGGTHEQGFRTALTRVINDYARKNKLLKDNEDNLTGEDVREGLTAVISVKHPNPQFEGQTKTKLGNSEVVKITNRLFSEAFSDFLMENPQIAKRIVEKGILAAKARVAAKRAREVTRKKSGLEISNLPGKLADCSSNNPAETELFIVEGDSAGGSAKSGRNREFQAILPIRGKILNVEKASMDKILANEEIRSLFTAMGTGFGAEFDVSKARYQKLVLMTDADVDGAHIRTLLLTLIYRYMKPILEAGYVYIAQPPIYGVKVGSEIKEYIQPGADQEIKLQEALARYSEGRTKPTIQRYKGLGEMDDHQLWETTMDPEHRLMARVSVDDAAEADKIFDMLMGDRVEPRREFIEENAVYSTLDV

| SMILES | supercoiled pBR322 DNA cleavage assay (cleavage complex stabilisation) [1] | X-ray co-crystal structures at 2.0 and 2.4 Å; DNA cleavage assay with purified e [2] [µM] | supercoiled pBR322 DNA cleavage assay (cleavage complex stabilisation) [3] [µM] |
| --- | --- | --- | --- |
| Nc1nc(-n2cc(C(=O)O)c(=O)c3cc(F)c(N4CC(O)C4)c(Cl)c32)c(F)cc1F [Delafloxacin] | 2.5–5.0 µM | 0.12 | – |
| C[C@H]1COc2c(N3CCN(C)CC3)c(F)cc3c(=O)c(C(=O)O)cn1c23 [Levofloxacin] | – | – | 2.5 |
